Laboratory results taken from patent US4735943A, “Eburnamonine oxime derivatives, salts thereof, and pharmaceutical agents containing the same” (Sanwa Kagaku Kenkyusho Co., Ltd., priority 1984, dated 1988).

Legend:
d,d-mice = assay: Cerebral Function Protection (recovery after rod dropped on vertex); format: in vivo, male; details: 10 mg/kg oral, 30 min before, negative values given as "not effective"
Description: (Cerebral Function Protection) To each of male d,d-mice (16-24 g, 6 to 24 animals/group), each of testing compounds was orally administered in an amount of 10 mg/kg. After 30 minutes from the administration, a cylindrical rod made of bakelite (diameter: 1 cm, weight: 36 g) was free dropped with a level height of 40 cm on a vertex of the mouse to hypnotize the same, in accordance with a method disclosed by […] et al ["Tyaku-no-Ayumi (The Progress in Medicines)", 104 (4), 253, 1978]. Observations were continued until a recovering reflex from the lethargy and a spontaneous motion appear to determine a reduction ratio of time period on such behavior appearances.

[1] = test system: blood flow in vertebral artery; assay: Cerebral Blood Flow Increase (blood flow in vertebral artery, electromagnetic rheometer); format: in vivo; details: anesthetized mongrel dogs, 1.0 mg/dog into vertebral artery
Description: (Cerebral Blood Flow Increase) Male and female mongrel dogs anesthetized with nembutal (sodium pentobarbital) were employed as subject and a blood flow in vertebral artery of those animals were measured with use of an electromagnetic rheometer. Each of testing compounds was administered to vertebral artery in a ratio of 1.0 mg/dog to determine a change in blood flow in the vertebral artery.

[2] = test system: ADP aggregation of platelets; assay: Depression on Blood Platelet Aggregation, ADP; format: cell-based, Wister male rat; details: in vitro, rat platelet plasma, read-out: depression Ratio to ADP; for inhibition at 10 µg/mL: final conc. 10 μg/ml, negative values given as "not effective"
Source text: (§1) (Depression on Blood Platelet Aggregation) With use of a blood-plasma with excess platelets (obtained from a Wister male rat, about 250 g), a depressing effect of each testing compound to ADP and collagen aggregations was studied in vitro (3 to 5 samples/group).Results are shown in following Table 4.

in vivo = details: mouse, male mice, oral, mortality after 72 hours
[3] = test system: collagen aggregation of platelets; assay: Depression on Blood Platelet Aggregation, collagen; format: cell-based, Wister male rat; details: in vitro, rat platelet plasma, read-out: depression Ratio to Collagen; for inhibition at 10 µg/mL: final conc. 10 μg/ml
Source text: as §1

[4] = test system: brain of rats with an essential hypertension (SHR); assay: Cerebral Metabolic Activation (cerebral ischemia by ligation of both common carotid arteries); format: in vivo, male); details: 10 mg/kg oral 1 h after ligation, measured 5 h after ligation
Description: (Cerebral Metabolic Activation) According to a known method [Fujishima et al, "Rinshou-to-Kenkyu (The Clinics and Studies)" 51, 3532, 1974], both common carotid arteries of rats with an essential hypertension (SHR, male, 250-350 g, 4 to 5 animals/group) were ligated to cause a cerebral ischemia. After one hour from the ligation, each of testing compounds was orally administered in an amount of 10 mg/kg and various parameters in brain were measured at the time having lapsed 5 hours from the ligation.

[5] = test system: erythrocyte deformability; assay: Acceleration on Erythrocyte Deformability (filtration-pressure method); format: in vivo, Wister male rats; details: rats, 10 mg/kg oral, blood 1 h after administration, 0.1% erythrocyte suspension
Description: (Acceleration on Erythrocyte Deformability) Each of testing compounds was orally administered to an amount of 10 mg/kg to Wister male rats (about 250 g, 5 animals/group). After one hour from the administration, blood sample was collected to prepare 0.1% erythrocyte suspension. An action of the compound to an erythrocyte deformability was studied in accordance with a filtration-pressure method to obtain results as shown in following Table 5.

CC[C@]12CCCN3CCc4c(n(c5ccccc45)C(=NO)C1)[C@@H]32 [Reference Example, (3α,16α)-eburnamenin-14(15H)-one oxime]
Reduction ratio, time to appear spontaneous motion (d,d-mice): -5.3%
Reduction ratio, time to recover sit-up reflex (d,d-mice): -12.4%
Increase in Blood Flow [1]: 144.9%
inhibition at 10 µg/mL [2]: -1.2%
LD50 at 72 h (in vivo): 510 mg/kg
inhibition at 10 µg/mL [3]: 5.4%
Amount of ATP in brain [4]: 0.20 µmol/g
Amount of Glucose in brain [4]: 592 nmol/g
Amount of Lactic acid in brain [4]: 7.10 µmol/g
Reduction Rate in Filtering Pressure [5]: 8.3%

CC[C@]12CCCN3CCc4c(n(c5ccccc45)C(=NOCCN4CCCC4)C1)[C@@H]32 [Example 4, (3α,16α)-eburnamenin-14(15H)-one O-[2-(1-pyrrolidinyl)ethyl]oxime]
Reduction ratio, time to appear spontaneous motion (d,d-mice): -71.6%
Reduction ratio, time to recover sit-up reflex (d,d-mice): -96.1%
Increase in Blood Flow [1]: 260.6%
inhibition at 10 µg/mL [2]: -10%
LD50 at 72 h (in vivo): 532 mg/kg
inhibition at 10 µg/mL [3]: 4.4%
Amount of ATP in brain [4]: 0.25 µmol/g
Amount of Glucose in brain [4]: 896 nmol/g
Amount of Lactic acid in brain [4]: 6.34 µmol/g
Reduction Rate in Filtering Pressure [5]: 9.3%

CC[C@]12CCCN3CCc4c(n(c5ccccc45)C(=NOCCN4CCN(c5ccccc5OC)CC4)C1)[C@@H]32 [Example 5, (3α,16α)-eburnamenin 14(15H)-one O-{2-[4-(2-methoxyphenyl)-1-piperazinyl]ethyl}oxime]
Reduction ratio, time to appear spontaneous motion (d,d-mice): 6.9%
Reduction ratio, time to recover sit-up reflex (d,d-mice): 0.4%
Increase in Blood Flow [1]: 179.3%
inhibition at 10 µg/mL [2]: 5.5%
LD50 at 72 h (in vivo): 660 mg/kg
inhibition at 10 µg/mL [3]: 9.3%
Amount of ATP in brain [4]: 0.28 µmol/g
Amount of Glucose in brain [4]: 802 nmol/g
Amount of Lactic acid in brain [4]: 5.50 µmol/g
Reduction Rate in Filtering Pressure [5]: 13.2%

CC[C@]12CCCN3CCc4c(n(c5ccccc45)C(=NOCC(O)CN4CCN(c5ccccc5OC)CC4)C1)[C@@H]32 (stereo partly drawn) [Example 6, (3α,16α)-eburnamenin-14(15H)-one O-{2-hydroxy-3-[4-(2-methoxyphenyl)-1-piperazinyl]propyl}oxime]
Reduction ratio, time to appear spontaneous motion (d,d-mice): 47.2%
Reduction ratio, time to recover sit-up reflex (d,d-mice): 23.5%
Increase in Blood Flow [1]: 357.7%
inhibition at 10 µg/mL [2]: 6.3%
LD50 at 72 h (in vivo): 560 mg/kg
inhibition at 10 µg/mL [3]: 9.5%
Amount of ATP in brain [4]: 0.32 µmol/g
Amount of Glucose in brain [4]: 1010 nmol/g
Amount of Lactic acid in brain [4]: 4.95 µmol/g
Reduction Rate in Filtering Pressure [5]: 35.1%

CCN(CC)CCON=C1C[C@]2(CC)CCCN3CCc4c(n1c1ccccc41)[C@@H]32 [Example 2, (3α,16α)-eburnamenin-14(15H)-one O-[2-(N,N-diethylamino)ethyl]oxime]
Reduction ratio, time to appear spontaneous motion (d,d-mice): 48.7%
Reduction ratio, time to recover sit-up reflex (d,d-mice): 54.3%
Increase in Blood Flow [1]: 269.5%
inhibition at 2 µg/mL ([2]; final conc. 2 μg/ml): 5.7%
LD50 at 72 h (in vivo): 611 mg/kg
inhibition at 2 µg/mL ([3]; final conc. 2 μg/ml): 73.8%
Amount of ATP in brain [4]: 0.36 µmol/g
Amount of Glucose in brain [4]: 1030 nmol/g
Amount of Lactic acid in brain [4]: 4.62 µmol/g
Reduction Rate in Filtering Pressure [5]: 6.0%

CC[C@]12CCCN3CCc4c(n(c5ccccc45)C(=NOCCN(C)C)C1)[C@@H]32 [Example 3, (3α,16α)-eburnamenin-14(15H)-one O-[2-(N,N-dimethylamino)ethyl]oxime]
Reduction ratio, time to appear spontaneous motion (d,d-mice): -11.3%
Reduction ratio, time to recover sit-up reflex (d,d-mice): -33.0%
Increase in Blood Flow [1]: 247.3%
inhibition at 10 µg/mL [2]: 5%
LD50 at 72 h (in vivo): 700 mg/kg
inhibition at 10 µg/mL [3]: 3.2%
Amount of ATP in brain [4]: 0.18 µmol/g
Amount of Glucose in brain [4]: 740 nmol/g
Amount of Lactic acid in brain [4]: 7.01 µmol/g
Reduction Rate in Filtering Pressure [5]: 10.2%

CCOC(=O)C1=C[C@]2(CC)CCCN3CCc4c(n1c1ccccc41)[C@@H]32 [vinpocetine, reference compound]
Increase in Blood Flow [1]: 261.4%
inhibition at 10 µg/mL [2]: -0.2%
inhibition at 10 µg/mL [3]: 4%
Amount of ATP in brain [4]: 0.36 µmol/g
Amount of Glucose in brain [4]: 1120 nmol/g
Amount of Lactic acid in brain [4]: 7.00 µmol/g
Reduction Rate in Filtering Pressure [5]: 46.3%
